Measured values from patent US20220145335A1, “Bio-catalyzed Synthesis of Potent Anti-inflammatory Agents from Medroxyprogesterone Acetate” (priority 2022, published 2022).
Where two headings read alike, the source gives them in different places.

Assays:
[1] = test system: T-cells (peripheral blood mononuclear cells); test: T-cell proliferation assay (PHA-stimulated PBMC, tritiated thymidine incorporation); assay type: cell-based, human; conditions: in vitro; for IC50: PHA-stimulated human PBMC, 72 h + 18 h thymidine pulse, read-out: IC50, T-cell proliferation inhibition; for T-cell proliferation inhibitory activity, result in words: compared to substrate (1) and standard prednisolone
Description: T-Cell Proliferation Assay The T-cell proliferation inhibitory activity of compounds 2-6 were evaluated by following the method of Nielsen et al. (1998). Peripheral blood mononuclear cells (PBMC) were isolated by Ficoll-Hypaque gradient centrifugation from the blood of healthy human volunteers. The concentration of the cell was adjusted to 2×10^6 cells/mL in RPMI-1640 media containing 5% FBS (Fetal bovine serum) and then 5 μg/mL phytohemagglutinin (PHA) was added into each well of a sterile 96-well plates. Different concentrations of test compounds (0.2, 1, 5, and 25 μg/mL) were then added, each in triplicate. Positive control wells contained cells and PHA, whereas the negative control contains cells alone. The plate was incubated in 5% CO2 at 37° C. for 72 hours and the cells were pulsed with 25 μL of tritiatedthymidine (0.5 μci/well), and the incubation was continued for 18 hours. Cells were harvested on a glass fiber filter, and the effect of the test compounds on proliferation was evaluated using a LS65000 liquid scintillation counter (Beckman Coulter, Fullerton, Calif., USA) quantitatively using a LS65000 liquid scintillation counter (Beckman Coulter, CA, USA). Counts per minute (CPM) were recorded, and the inhibiton of T-cell proliferation was calculated in comparison to control containing cells and PHA.

Row | SMILES | IC50 ([1]; 90 h) | T-cell proliferation inhibitory activity, result in words [1] | melting point | IC50 [1]
1 | CC(=O)O[C@]1(C(C)=O)CC[C@H]2[C@@H]3C[C@@](C)(O)C4=CC(=O)CC[C@]4(C)[C@H]3C(=O)C[C@@]21C [Compound 4, 17α-Acetoxy-6β-hydroxy-6α-methylpregn-4-ene-3,11,20-trione] | 40.14 ± 0.12 µM | moderately active | 232 to 233 °C | 
2 | C[C@]12C=CC(=O)C=C1CC[C@@H]1[C@@H]2[C@@H](O)C[C@@]2(C)[C@H]1CC[C@]2(O)C(=O)CO [prednisolone, reference compound] | 9.75 ± 0.03 µM |  |  | 9.75 ± 0.03 µM
3 | CC(=O)O[C@]1(C(C)=O)C[C@@H](O)[C@H]2[C@@H]3C[C@H](C)C4=CC(=O)CC[C@]4(C)[C@H]3[C@@H](O)C[C@@]21C [Compound 5, 17α-Acetoxy-11β,15β-dihydroxy-6α-methylpregn-4-ene-3,20-dione] | < 0.5 µM | potent inhibitors | 228 to 230 °C | < 0.5 µM
4 | CC(=O)O[C@]1(C(C)=O)C[C@@H](O)[C@H]2[C@@H]3C[C@H](C)C4=CC(=O)CC[C@]4(C)[C@H]3C(=O)C[C@@]21C [Compound 3, 17α-Acetoxy-15β-hydroxy-6α-methylpregn-4-ene-3,11,20-trione] | 41.6 ± 8.14 µM | moderately active | 265 to 268 °C | 
5 | CC(=O)O[C@]1(C(C)=O)CC[C@H]2[C@@H]3C[C@H](C)C4=CC(=O)CC[C@]4(C)[C@H]3CC[C@@]21C [Compound 1, Medroxyprogesterone acetate] |  |  |  | 6.48 ± 5.18 µM
6 | CC(=O)O[C@]1(C(C)=O)CC[C@H]2[C@@H]3C[C@@](C)(O)C4=CC(=O)CC[C@]4(C)[C@H]3[C@@H](O)C[C@@]21C [Compound 6, 17α-Acetoxy-11β,6β-dihydroxy-6α-methylpregn-4-ene-3,20-dione] | 8.64 ± 0.02 µM | strong activity | 152 to 154 °C | 8.64 ± 0.02 µM
7 | CC(=O)O[C@]1(C(C)=O)CC[C@H]2[C@@H]3C[C@H](C)C4=CC(=O)CC[C@]4(C)[C@H]3C(=O)C[C@@]21C [Compound 2, 17α-Acetoxy-6α-methylpregn-4-ene-3,11,20-trione] | < 0.5 µM | potent inhibitors | 238 to 240 °C | < 0.5 µM
